Assays:
[1] = system: rabbit; settings: Sub-acute repeat dose toxicity, Oral, Gavage/Intubation, dose end: 5 day, group: systemic
[2] = system: rat; settings: Fertility (Segment I), Oral, Gavage/Intubation, dose end: 1 generation, group: parental
[3] = system: rabbit; settings: Prenatal developmental toxicity study, new zealand white, Oral, Gavage/Intubation, dose end: 19 GD
[4] = system: primate; settings: Sub-acute repeat dose toxicity, Oral, Gavage/Intubation, dose end: 28 day, group: systemic
[5] = system: rat; settings: Sub-acute repeat dose toxicity; sprague dawley; Oral; Gavage/Intubation; dose end: 29 day; group: systemic; systemic / in life observation / clinical signs / salivation
[6] = system: rat; settings: Prenatal developmental toxicity study, sprague dawley, Oral, Gavage/Intubation, dose end: 18 GD
[7] = system: rat; settings: Sub-acute repeat dose toxicity, sprague dawley, Oral, Gavage/Intubation, dose end: 14 day, group: systemic
[8] = system: rat; settings: Fertility (Segment I), Oral, Gavage/Intubation, dose end: 1 generation, group: parental; remark: listed apart in the source
[9] = system: rat; settings: Chronic toxicity, sprague dawley, Oral, Gavage/Intubation, dose end: 180 day, group: systemic
[10] = system: primate; settings: Sub-acute repeat dose toxicity, Oral, Gavage/Intubation, dose end: 10 day, group: systemic
[11] = system: dog; settings: Sub-acute repeat dose toxicity; beagle; Oral; Gavage/Intubation; dose end: 5 day; group: systemic; systemic / in life observation / clinical signs / abnormal feces + systemic / in life observation / clinical signs / emesis
[12] = system: dog; settings: Sub-acute repeat dose toxicity, beagle, Oral, Gavage/Intubation, dose end: 5 day, group: systemic
[13] = system: rabbit; settings: Sub-acute repeat dose toxicity; new zealand white; Oral; Gavage/Intubation; dose end: 5 day; group: systemic; systemic / in life observation / body weight / body weight + systemic / in life observation / clinical signs / altered breathing rate + …
[14] = system: dog; settings: Subchronic oral toxicity in nonrodent, beagle, Gavage/Intubation, dose end: 90 day, group: systemic
[15] = system: rat; settings: Sub-acute repeat dose toxicity; sprague dawley; Oral; Gavage/Intubation; dose end: 9 day; group: systemic; systemic / in life observation / body weight / body weight gain + systemic / in life observation / food consumption / food consumption
[16] = system: dog; settings: Sub-acute repeat dose toxicity; beagle; Oral; Gavage/Intubation; dose end: 29 day; group: systemic; systemic / clinical chemistry / hepatic mixed function oxidase (mfo) assay / hepatic mixed function oxidase (mfo) assay + systemic / in life…
[17] = system: rat; settings: Sub-acute repeat dose toxicity, sprague dawley, Oral, Gavage/Intubation, dose end: 29 day, group: systemic
[18] = systemic / in life observation / body weight / body weight + systemic / in life observation / clinical signs / abnormal feces + systemic / …
[19] = systemic / in life observation / clinical signs / abnormal respiratory sounds + systemic / in life observation / clinical signs / fur (…
[20] = systemic / in life observation / clinical signs / salivation
[21] = group: developmental, systemic / in life observation / body weight / fetal weight
[22] = group: maternal, systemic / in life observation / body weight / body weight + systemic / in life observation / body weight / body weight gain + systemic / in…
[23] = systemic / clinical chemistry / [other] / [other] + systemic / in life observation / clinical signs / abnormal feces + systemic / in life …
[24] = systemic / in life observation / clinical signs / abnormal feces
[25] = group: developmental, developmental / developmental malformation / bone / delayed ossification + systemic / in life observation / body weight / fetal weight
[26] = group: maternal, systemic / in life observation / clinical signs / salivation
[27] = group: maternal, systemic / in life observation / clinical signs / salivation + systemic / in life observation / body weight / body weight gain
[28] = systemic / in life observation / body weight / body weight gain + systemic / in life observation / clinical signs / dehydration + systemic…
[29] = systemic / in life observation / clinical signs / fur (altered appearance) + systemic / in life observation / clinical signs / salivation
[30] = systemic / clinical chemistry / 5' nucleotidase / 5' nucleotidase + systemic / clinical chemistry / alanine aminotransferase (alt/sgpt) / …
[31] = systemic / in life observation / body weight / body weight gain + systemic / in life observation / food consumption / food consumption
[32] = systemic / in life observation / clinical signs / abnormal feces + systemic / in life observation / clinical signs / salivation
[33] = systemic / in life observation / clinical signs / abnormal feces + systemic / in life observation / clinical signs / salivation + systemic…
[34] = systemic / in life observation / clinical signs / abnormal feces + systemic / in life observation / clinical signs / emesis
[35] = systemic / clinical chemistry / cholesterol / cholesterol + systemic / organ weight / liver / absolute + systemic / pathology microscopic / …
[36] = systemic / in life observation / clinical signs / abnormal feces + systemic / organ weight / liver / absolute + systemic / pathology …
[37] = systemic / clinical chemistry / 5' nucleotidase / 5' nucleotidase + systemic / clinical chemistry / albumin / albumin + systemic / clinical …

SMILES: CC(C)(O)c1coc(S(=O)(=O)NC(=O)Nc2c3c(cc4c2CCC4)CCC3)c1
- LOAEL [1, 18]: > 500 mg/kg/day
- NEL [1, 18]: 50 mg/kg/day
- NOAEL [1, 18]: ≥ 500 mg/kg/day
- LEL ([1]; systemic / in life observation / food consumption / food consumption): 250 mg/kg/day
- LOAEL [2, 19]: > 500 mg/kg/day
- NOAEL [2, 19]: ≥ 500 mg/kg/day
- LEL [2, 20]: 25 mg/kg/day
- NEL [2, 20]: < 25 mg/kg/day
- LEL [3, 21]: 250 mg/kg/day
- LOAEL [3, 21]: > 250 mg/kg/day
- NOAEL [3, 21]: ≥ 250 mg/kg/day
- LEL [3, 22]: 250 mg/kg/day
- LOAEL [3, 22]: > 250 mg/kg/day
- NEL [3, 22]: 100 mg/kg/day
- NOAEL [3, 22]: ≥ 250 mg/kg/day
- LOAEL [4, 23]: > 200 mg/kg/day
- NEL [4, 23]: 2 mg/kg/day
- NOAEL [4, 23]: ≥ 200 mg/kg/day
- LEL [4, 24]: 50 mg/kg/day
- LEL [5]: 100 mg/kg/day
- LOAEL [5]: > 500 mg/kg/day
- NEL [5]: 10 mg/kg/day
- NOAEL [5]: ≥ 500 mg/kg/day
- LEL [6, 25]: 500 mg/kg/day
- LOAEL [6, 25]: > 500 mg/kg/day
- NOAEL [6, 25]: ≥ 500 mg/kg/day
- LEL [6, 26]: 50 mg/kg/day
- NEL [6, 26]: < 50 mg/kg/day
- LOAEL [6, 27]: > 500 mg/kg/day
- NOAEL [6, 27]: ≥ 500 mg/kg/day
- LOAEL [7, 28]: > 1000 mg/kg/day
- NOAEL [7, 28]: ≥ 1000 mg/kg/day
- LEL [7, 20]: 100 mg/kg/day
- NEL [7, 20]: < 100 mg/kg/day
- LOAEL [8, 29]: > 500 mg/kg/day
- NOAEL [8, 29]: ≥ 500 mg/kg/day
- LEL [8, 20]: 25 mg/kg/day
- NEL [8, 20]: < 25 mg/kg/day
- LOAEL [9, 30]: > 500 mg/kg/day
- NOAEL [9, 30]: ≥ 500 mg/kg/day
- LEL [9, 31]: 25 mg/kg/day
- NEL [9, 31]: < 25 mg/kg/day
- LEL [10, 32]: 10 mg/kg/day
- NEL [10, 32]: < 10 mg/kg/day
- LOAEL [10, 33]: > 200 mg/kg/day
- NOAEL [10, 33]: ≥ 200 mg/kg/day

SMILES: NC(=O)N(O)[C@@H]1C=C[C@H](Oc2cccc(Oc3ccc(F)cc3)c2)C1
- LEL [11]: 250 mg/kg/day
- LOAEL [11]: > 500 mg/kg/day
- NEL [11]: < 250 mg/kg/day
- NOAEL [11]: ≥ 500 mg/kg/day
- LEL [12, 24]: 5 mg/kg/day
- NEL [12, 24]: < 5 mg/kg/day
- LOAEL [12, 34]: > 125 mg/kg/day
- NOAEL [12, 34]: ≥ 125 mg/kg/day
- LEL [13]: 400 mg/kg/day
- LOAEL [13]: > 400 mg/kg/day
- NEL [13]: 40 mg/kg/day
- NOAEL [13]: ≥ 400 mg/kg/day
- NEL [14, 35]: 5 mg/kg/day
- LOAEL [14, 36]: > 125 mg/kg/day
- NOAEL [14, 36]: ≥ 125 mg/kg/day
- LEL ([14]; systemic / organ weight / liver / absolute): 25 mg/kg/day
- LEL [15]: 400 mg/kg/day
- LOAEL [15]: > 400 mg/kg/day
- NEL [15]: 200 mg/kg/day
- NOAEL [15]: ≥ 400 mg/kg/day
- LEL [16]: 125 mg/kg/day
- LOAEL [16]: > 125 mg/kg/day
- NEL [16]: 25 mg/kg/day
- NOAEL [16]: ≥ 125 mg/kg/day
- LOAEL [17, 37]: > 400 mg/kg/day
- NEL [17, 37]: 10 mg/kg/day
- NOAEL [17, 37]: ≥ 400 mg/kg/day
- LEL [17, 35]: 40 mg/kg/day
